# Results published in US20230365592A1 (Agios Pharmaceuticals, Inc., priority 2022, published 2023).
# Biological target: T1, human PAH with the R408W mutation (Homo sapiens, UniProt P00439, R408W)
# T1 construct: expressed in transfected cells
# T1 sequence (P00439 1-452 R408W): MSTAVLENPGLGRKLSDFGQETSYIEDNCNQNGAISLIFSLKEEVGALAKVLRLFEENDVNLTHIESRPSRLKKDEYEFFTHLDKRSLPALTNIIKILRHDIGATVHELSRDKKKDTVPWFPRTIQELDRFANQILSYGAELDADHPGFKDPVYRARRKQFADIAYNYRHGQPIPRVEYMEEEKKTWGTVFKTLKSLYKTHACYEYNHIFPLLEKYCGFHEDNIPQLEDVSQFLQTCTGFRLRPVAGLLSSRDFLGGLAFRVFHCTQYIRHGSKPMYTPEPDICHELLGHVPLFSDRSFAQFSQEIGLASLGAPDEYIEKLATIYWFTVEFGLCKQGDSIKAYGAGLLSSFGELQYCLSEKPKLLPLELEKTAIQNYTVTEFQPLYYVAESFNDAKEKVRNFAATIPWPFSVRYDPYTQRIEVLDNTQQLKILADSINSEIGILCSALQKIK
# Test: Cell Based Phenylalanine Flux Assay;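 further: after compound treatment, cells received sepiapterin plus isotope-labelled Phenylalanine for 4 hours, then labelled Tyrosine in the medium was quantified, 10-point 2-fold dilution series run in duplicate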
# Settings: A375 cells expressing R408W PAH; 24 hrs with compound, then 20 µM sepiapterin and 800 µM 13C9,15N-Phenylalanine for 4 hours; 13C-Tyrosine by LC-MS; average where tested multiple times; read-out: AC50
row,AC50,Structure (SMILES)
1,1000 to 5000 nM,Cn1cc(-c2nnc(N3CCc4[nH]cnc4C3c3cc4ccccn4n3)o2)cn1 (centres unmarked)
2,1000 to 5000 nM,FC(F)c1cccn2nc(C3c4nc[nH]c4CCN3c3nnc(-c4cccnn4)o3)cc12 (centres unmarked)

# Same assay, conditions: A375 cells expressing human PAH R408W; 24 hrs compound incubation; 13C-Tyrosine by LC-MS; average where tested multiple times; read-out: AC50
row,AC50,Structure (SMILES)
1,< 500 nM,"CC(F)(F)c1nnc(N2CCc3[nH]cnc3[C@H]2c2cc3c(C(F)F)cccn3n2)o1 [Example 2203, (S)-2-(1,1-difluoroethyl)-5-(4-(4-(difluoromethyl)pyrazolo[1,5-a]pyridin-2-yl)-1,4,6,7-tetrahydro-5H-imidazo[4,5-c]pyridin-5-yl)-1,3,4-oxadiazole]"
2,1000 to 5000 nM,"Cn1cc(-c2ccc3c(C(=O)N4CCc5[nH]cnc5[C@H]4c4cc5cccc(C(F)(F)F)n5n4)cnn3c2)cn1 [Example 2438, (S)-(6-(1-methyl-1H-pyrazol-4-yl)pyrazolo[1,5-a]pyridin-3-yl)(4-(7-(trifluoromethyl)pyrazolo[1,5-a]pyridin-2-yl)-6,7-dihydro-1H-imidazo[4,5-c]pyridin-5(4H)-yl)methanone]"
3,1000 to 5000 nM,"O=C(c1nnc(-c2ncccn2)o1)N1CCc2[nH]cnc2[C@H]1c1cc2c(OC(F)(F)F)cccn2n1 [Example 2469, (S)-(5-(pyrimidin-2-yl)-1,3,4-oxadiazol-2-yl)(4-(4-(trifluoromethoxy)pyrazolo[1,5-a]pyridin-2-yl)-6,7-dihydro-1H-imidazo[4,5-c]pyridin-5(4H)-yl)methanone]"
4,> 5000 nM,"FC(F)c1nnc(N2CCc3[nH]cnc3[C@@H]2c2cc3c(C4CC4)cccn3n2)o1 [Example 2166, (R)-2-(4-(4-cyclopropylpyrazolo[1,5-a]pyridin-2-yl)-1,4,6,7-tetrahydro-5H-imidazo[4,5-c]pyridin-5-yl)-5-(difluoromethyl)-1,3,4-oxadiazole]"
5,500 to 1000 nM,"Cc1cccc(-c2nnc(N3CCc4[nH]cnc4[C@H]3c3cc4c(C5CC5)cccn4n3)o2)n1 [Example 2359, (S)-2-(4-(4-cyclopropylpyrazolo[1,5-a]pyridin-2-yl)-1,4,6,7-tetrahydro-5H-imidazo[4,5-c]pyridin-5-yl)-5-(6-methylpyridin-2-yl)-1,3,4-oxadiazole]"
6,1000 to 5000 nM,"Cc1cccn2nc([C@H]3c4nc[nH]c4CCN3C(=O)c3ocnc3C3CC3)cc12 [Example 1945, (R)-(4-cyclopropyloxazol-5-yl)(4-(4-methylpyrazolo[1,5-a]pyridin-2-yl)-1,4,6,7-tetrahydro-5H-imidazo[4,5-c]pyridin-5-yl)methanone]"
7,> 5000 nM,"CC(C)c1cccn2nc([C@H]3c4nc[nH]c4CCN3C(=O)c3nnc(-c4ccn(C(F)(F)F)n4)o3)cc12 [Example 1985, (R)-(4-(4-isopropylpyrazolo[1,5-a]pyridin-2-yl)-1,4,6,7-tetrahydro-5H-imidazo[4,5-c]pyridin-5-yl)(5-(1-(trifluoromethyl)-1H-pyrazol-3-yl)-1,3,4-oxadiazol-2-yl)methanone]"
8,500 to 1000 nM,"O=C(c1ncco1)N1CCc2[nH]cnc2[C@H]1c1cc2c(C(F)(F)F)cccn2n1 [Example 2078, (S)-oxazol-2-yl(4-(4-(trifluoromethyl)pyrazolo[1,5-a]pyridin-2-yl)-1,4,6,7-tetrahydro-5H-imidazo[4,5-c]pyridin-5-yl)methanone]"
9,> 5000 nM,"Cc1cccc(-c2nnc(N3CCc4[nH]cnc4[C@@H]3c3cc4c(C5CC5)cccn4n3)o2)n1 [Example 2358, (R)-2-(4-(4-cyclopropylpyrazolo[1,5-a]pyridin-2-yl)-1,4,6,7-tetrahydro-5H-imidazo[4,5-c]pyridin-5-yl)-5-(6-methylpyridin-2-yl)-1,3,4-oxadiazole]"

# Same assay, conditions: A375 cells expressing human R408W PAH; 24 hrs compound incubation; 13C-Tyrosine by LC-MS; average where tested multiple times; read-out: AC50
row,Structure (SMILES),AC50
1,"CC(C)(O)c1nc(C(F)F)c(C(=O)N2CCc3[nH]cnc3[C@@H]2c2cc3c(Cl)cccn3n2)o1 [Example 701, (R)-(4-(4-chloropyrazolo[1,5-a]pyridin-2-yl)-6,7-dihydro-1H-imidazo[4,5-c]pyridin-5(4H)-yl)(4-(difluoromethyl)-2-(2-hydroxypropan-2-yl)oxazol-5-yl)methanone]",1000 to 5000 nM
2,"CC(C)c1nnc(C(=O)N2CCc3[nH]cnc3[C@@H]2c2cc3c(Cl)cccn3n2)o1 [Example 1485, (R)-(4-(4-chloropyrazolo[1,5-a]pyridin-2-yl)-6,7-dihydro-1H-imidazo[4,5-c]pyridin-5(4H)-yl)(5-isopropyl-1,3,4-oxadiazol-2-yl)methanone]",1000 to 5000 nM
3,"COc1cccn2nc([C@H]3c4nc[nH]c4CCN3C(=O)c3cc(C)nn3C)cc12 [Example 919, (R)-(1,3-dimethyl-1H-pyrazol-5-yl)(4-(4-methoxypyrazolo[1,5-a]pyridin-2-yl)-6,7-dihydro-1H-imidazo[4,5-c]pyridin-5(4H)-yl)methanone]",> 5000 nM
4,"O=C(c1nnc(-c2ccncc2)o1)N1CCc2[nH]cnc2[C@@H]1c1cc2c(F)cccn2n1 [Example 831, (R)-(4-(4-fluoropyrazolo[1,5-a]pyridin-2-yl)-6,7-dihydro-1H-imidazo[4,5-c]pyridin-5(4H)-yl)(5-(pyridin-4-yl)-1,3,4-oxadiazol-2-yl)methanone]",1000 to 5000 nM
5,"Cc1c(-c2nnc(C(=O)N3CCc4[nH]cnc4[C@@H]3c3cc4c(C(F)(F)F)cccn4n3)o2)cnn1C [Example 1205, (R)-(5-(1,5-dimethyl-1H-pyrazol-4-yl)-1,3,4-oxadiazol-2-yl)(4-(4-(trifluoromethyl)pyrazolo[1,5-a]pyridin-2-yl)-6,7-dihydro-1H-imidazo[4,5-c]pyridin-5(4H)-yl)methanone]",> 5000 nM
6,"O=C(c1nnc(-c2ccc(F)cc2F)o1)N1CCc2[nH]cnc2[C@H]1c1cc2ccccn2n1 [Example 652, (S)-(5-(2,4-difluorophenyl)-1,3,4-oxadiazol-2-yl)(4-(pyrazolo[1,5-a]pyridin-2-yl)-6,7-dihydro-1H-imidazo[4,5-c]pyridin-5(4H)-yl)methanone]",< 500 nM
7,"O=C(c1nnc(-c2cnn(C(F)F)c2)o1)N1CCc2[nH]cnc2[C@H]1c1cc2c(C(F)(F)F)cccn2n1 [Example 906, (S)-(5-(1-(difluoromethyl)-1H-pyrazol-4-yl)-1,3,4-oxadiazol-2-yl)(4-(4-(trifluoromethyl)pyrazolo[1,5-a]pyridin-2-yl)-6,7-dihydro-1H-imidazo[4,5-c]pyridin-5(4H)-yl)methanone]",< 500 nM
8,"Cn1cc(-c2nnc(C(=O)N3CCc4[nH]cnc4[C@@H]3c3cc4c(C(F)F)cccn4n3)o2)cn1 [Example 1317, (R)-(4-(4-(difluoromethyl)pyrazolo[1,5-a]pyridin-2-yl)-6,7-dihydro-1H-imidazo[4,5-c]pyridin-5(4H)-yl)(5-(1-methyl-1H-pyrazol-4-yl)-1,3,4-oxadiazol-2-yl)methanone]",1000 to 5000 nM
9,"Cc1cccn2nc([C@H]3c4nc[nH]c4CCN3C(=O)c3oc([C@@H](C)O)nc3C(F)F)cc12 [Example 739, (4-(difluoromethyl)-2-((R)-1-hydroxyethyl)oxazol-5-yl)((R)-4-(4-methylpyrazolo[1,5-a]pyridin-2-yl)-6,7-dihydro-1H-imidazo[4,5-c]pyridin-5(4H)-yl)methanone]",1000 to 5000 nM
10,"O=C(c1ocnc1C(F)F)N1CCc2[nH]cnc2[C@@H]1c1cc2ccc(C(F)(F)F)cn2n1 [Example 1105, (R)-(4-(difluoromethyl)oxazol-5-yl)(4-(6-(trifluoromethyl)pyrazolo[1,5-a]pyridin-2-yl)-6,7-dihydro-1H-imidazo[4,5-c]pyridin-5(4H)-yl)methanone]",1000 to 5000 nM
11,"Cc1cccc2cc([C@@H]3c4nc[nH]c4CCN3C(=O)c3oc(C(C)(C)O)nc3C(F)F)nn12 [Example 794, (S)-(4-(difluoromethyl)-2-(2-hydroxypropan-2-yl)oxazol-5-yl)(4-(7-methylpyrazolo[1,5-a]pyridin-2-yl)-6,7-dihydro-1H-imidazo[4,5-c]pyridin-5(4H)-yl)methanone]",< 500 nM
12,"Cn1nc(Cl)nc1C(=O)N1CCc2[nH]cnc2[C@H]1c1cc2ccccn2n1 [Example 694, (S)-(3-chloro-1-methyl-1H-1,2,4-triazol-5-yl)(4-(pyrazolo[1,5-a]pyridin-2-yl)-6,7-dihydro-1H-imidazo[4,5-c]pyridin-5(4H)-yl)methanone]",< 500 nM

# Other lines, results leading:
row,AC50,Structure (SMILES)
1,> 5000 nM,"Cc1cccn2nc([C@H]3c4nc[nH]c4CCN3c3nnc(C(F)F)o3)cc12 [Example 1710, (R)-2-(difluoromethyl)-5-(4-(4-methylpyrazolo[1,5-a]pyridin-2-yl)-6,7-dihydro-1H-imidazo[4,5-c]pyridin-5(4H)-yl)-1,3,4-oxadiazole]"
2,1000 to 5000 nM,"COc1ccc2c(C(=O)N3CCc4[nH]cnc4[C@@H]3c3cc4cccc(C)n4n3)cnn2c1 [Example 1719, (R)-(6-methoxypyrazolo[1,5-a]pyridin-3-yl)(4-(7-methylpyrazolo[1,5-a]pyridin-2-yl)-6,7-dihydro-1H-imidazo[4,5-c]pyridin-5(4H)-yl)methanone]"
3,> 5000 nM,"Cc1ncccc1-c1nnc(C(=O)N2CCc3[nH]cnc3[C@@H]2c2cc3cccc(C(F)F)n3n2)o1 [Example 1501, (R)-(4-(7-(difluoromethyl)pyrazolo[1,5-a]pyridin-2-yl)-6,7-dihydro-1H-imidazo[4,5-c]pyridin-5(4H)-yl)(5-(2-methylpyridin-3-yl)-1,3,4-oxadiazol-2-yl)methanone]"
